Assay results published in US9205156B2, “Molecular imaging agents” (HADASIT MEDICAL RESEARCH SERVICES & DEVELOPMENT LIMITED, priority 2010, dated 2015).
“And” between values parts separate entries of the source, which are not always exact repeats. Equal entries are not always repeated. One block for each compound: values may come before it.

Key:
[1] = PET/CT studies in a porcine model of LCx coronary artery occlusion (rest and adenosine stress); format: in vivo, pigs
Procedure: Following a constriction of the left circumflex coronary artery (LCxA) via insertion and manipulation of a stent, stress and rest dynamic-PET studies were performed in three pigs. Pigs underwent dynamic PET acquisition following injections of [^11C]-4 both at rest and under pharmacological stress [(207±30 MBq in 10±4 mL) and (203±11 MBq in 16±1 mL), respectively]. Images were acquired for each animal at rest and stress on the same day, allowing a minimum of 5 half-lives (approximately 2 h for carbon-11 and 1 h for nitrogen-13) in between injections to minimize crosstalk. Pharmacological stress was induced by an IV infusion of adenosine (500 μg×min^−1×kg^−1 body weight), beginning 3 min prior to injection of the tracers, and maintained for an additional 3 min. When necessary, hypotension was prevented by concomitant IV administration of dobutamine (2 μg×min^−1×kg^−1 body weight).
In order to prevent complete occlusion in the third pig, the angiography and stent insertion were carried out in the PET/CT room, thus minimizing the animal's movement, and the animal was given higher doses of heparin (a sum of 30,000 units throughout the experiment) based on Activated Clotting Time (ACT) test. In the third pig, the adenosine stress protocol was performed twice: once with [^13N]NH3 (700 MBq in 1 mL) injection, and 2.5 h later, the adenosine stress protocol was repeated with [^11C]-4 injection.
To prevent blood clotting, pigs were treated with aspirin (250-300 mg) and plavix (150-300 mg) on the day before the procedure. On the day of the study, the animals were anesthetized using ketamine/xylazine (15 mg/kg/2 mg/kg) and Butorphanol 0.2 mg/kg IM as premedication. For induction, ketamin/diazepam (4 mg/kg/0.02 mg/kg) was administered intravenously. Animals were ventilated and anesthesia, maintained using isoflorane 2% inhalation (via tracheal tube). Animals were monitored continuously for ECG, body temperature, O2 saturation, blood pressure, pulse and breathing. Vascular access was prepared in the left and right ear veins for drug and tracer administration, and a catheter was placed in the left femoral artery for stent insertion and arterial blood pressure measurements.
Following anesthesia, the pigs underwent cannulation of the left femoral artery with a 7 Fr introducer sheath and a 7 Fr hockeystick catheter (Cordis) was positioned in the left main coronary artery. Partial LCx coronary artery occlusion was induced via partial inflation of the proximal component of a JOSTENT Graftmaster (Abbott Vascular, USA) inside the LCx coronary artery, creating a funnel-shaped structure. Before insertion of the stent, the 3.5×16 mm JOSTENT was partially crimped over a 3.5 mm balloon with its distal third beyond the inflating balloon. Inflation of the balloon dilates the crimped part leaving a distal cone that is not dilated with an orifice approximately 1 mm in diameter. Thus, when deployed in an artery that is 3.5 mm in diameter, a partial, yet significant stenosis was established.
Coronary angiography was performed with 20-30 mL of contrast media and 3.5 mm wide and >20 mm long segment of the LCx artery that was free of major branches. The stent system was brought to the assigned segment over a floppy 0.014 coronary wire (ASAHI). The balloon was inflated with a pressure of 14-16 atmospheres (10-15 seconds) and the balloon was then deflated and withdrawn. Angiography was then performed in two different projections to ascertain that the cone-shaped stent enabled preserved continuous flow through its patent distal orifice. To ensure partial stenosis rather than complete occlusion of the artery during the PET imaging, a repeated angiography was taken at the end of imaging.
Animals were placed in a supine position with the heart in the center of the field of view of the PET/CT scanner. Imaging was performed on a Discovery ST PET/CT tomograph (GE Healthcare, Milwaukee, Wis.), with intrinsic spatial resolution: in-plane 6.2 mm, axial 5.0 mm. […]

[2] = Micro-PET scans in rats, time activity curves; format: in vivo, Wistar rats; details: microPET; for myocardial radioactivity uptake: isoflurane anesthesia
Procedure: Micro-PET scans were also carried out using healthy Wistar rats (154±47 g). Anesthesia was induced, and thereafter maintained by 3% and 1%-2.5% isoflurane in O2, respectively. During the scans, rats were maintained normothermic using a heating blanket. All CT and PET acquisitions were carried out using the Inveon™ multimodality PET-CT small animal-dedicated scanner (Siemens Medical Solutions USA Inc.). Rats were positioned in the scanner so that the heart was in the center of the field of view. Following a CT scan, PET list-mode acquisition was started at the time of injection of [^11C]-4 (14.3±5.7 Mbq/rat, n=4) or [^13N]—NH3 (81.1±20.4 Mbq/rat, n=6) in the lateral tail vein. Acquisitions continued for 60 min or 40 min post-injection, for [^11C]-4 or [^13N]—NH3, respectively.
The list-mode emission scans were sorted into 29 (6×10, 8×30, 5×60, 10×300 sec) and 24 (12×10, 6×30, 5×300, 1×600 sec) dynamic frames, for [^11C]-4 and [^13N]—NH3 respectively. Emission sinograms were normalized and corrected for attenuation, dead time and decay. Image reconstruction was performed using Fourier rebinning and two dimensional ordered-subsets expectation maximization (2D-OSEM), with a voxel size of 0.776×0.776×0.796 mm^3.
Image analysis and quantification of radioactivity concentration in regions of interest (ROIs) were performed using Inveon Research Workplace 3.1 (Siemens Medical Solutions USA Inc.). Delineation of ROIs was performed by manual segmentation, and the corresponding time activity curves (TACs) were calculated.

[3] = literature reference value; cited from earlier work
[4] = Tracer biodistribution studies in mice (γ-counter, % ID/g)
Procedure: Compounds [^11C]-1, [^11C]-2, [^11C]-3, [^11C]-4, [^11C]-6, [^11C]-7 and Technetium-99 m methoxy isobutyl isonitrile ([^99mTc]MIBI) biodistribution studies were carried out with BALB/c Ola/Hsd mice (7-8 week). Tracers were injected in a 10% EtOH/saline solution as vehicle. Either [^11C]-1 (62±15 μCi; […]; 122±13 μL), [^11C]-2 (68±12 μCi; 2.5±0.4 MBq; 188±1.3 μL), [^11C]-3 (70±17 μCi; 2.6±0.6 MBq; 185±5 μL), [^11C]-4 (18±5 μCi; […]; 195±2.2 μL or 1.24±0.93 MBq, 229±63 μL), [^11C]-6 (1.95±0.21 MBq, 83±41 μL), [^11C]-7 (2.01±0.16 MBq, 169±73 μL) or [^99mTc]mibi (14.2±1.7 μCi; 3.6±0.4 MBq; 97.7±12.5 μL) were injected via the lateral vein. At allotted time points (1, 5, 10, 15 min), blood was drawn from the orbital sinus, mice were sacrificed by cervical dislocation and selected organs (heart, lungs, liver and kidney) were excised, weighed and measured for their radioactive content using a γ-counter (1480 Wizard 3″). Distribution of activity was calculated as the percentage of injected dose per gram of organ (% ID/g). Activity uptake ratios of various organs were calculated by dividing the corresponding calculated % ID/gs.
Distribution of activity was calculated as the percentage of injected dose per gram of wet tissue (% ID/g). Activity uptake ratios of various organs were calculated by dividing the corresponding calculated % ID/g. Heart standardized uptake values (SUVs) were calculated by dividing the % ID in the heart of each rat by the percentage of heart weight of the total body weight of the animal.

[5] = Biodistribution of [11C]-4 in rats (γ-counter, % ID/g, heart SUV); format: in vivo, SD/Hsd rats
Procedure: Similar to the biodistribution studies in mice, [^11C]-4 was injected into male SD/Hsd rats (293±9 g) in a 10% EtOH/saline solution (3.1±0.5 MBq; 530±134 μL) via the lateral tail vein. At the allotted time points, blood was drawn, animals were sacrificed, and selected organs were excised, weighed and measured for their radioactive content.

log P (lipophilicity) = format: physicochemical; details: n=3, data not shown
[6] = mice, time point not stated (within 15 min period)
[7] = BALB/c Ola/Hsd, mouse, in vivo, 1 min
[8] = BALB/c Ola/Hsd, mouse, in vivo, 5 min
[9] = BALB/c Ola/Hsd, mouse, in vivo, 10 min
[10] = BALB/c Ola/Hsd, mouse, in vivo, 15 min

Compound: [13NH3] [[^13N]NH3, [^13N]ammonia, reference compound]
myocardial perfusion image finding at adenosine stress ([1]; pig 3, partial LCx stenosis): severe inferolateral defect
kidney radioactivity uptake, initial peak value [2]: 3 % ID/mL
myocardial radioactivity uptake [2]: ≤ 1.7 % ID/mL

Compound: C[N+](C)([11CH3])c1ccccc1 [[^11C]-2, [^11C]trimethyl-phenyl-ammonium iodide]
log P [3]: −2.74
radioactivity uptake in the heart ([4]; mice, 1 min post injection): 29.5 % ID/g
heart/blood activity uptake ratio ([4]; mice, 5 min post injection): 15.5 fold
heart/liver activity uptake ratio ([4]; mice, 5 min post injection): 1.9
heart/lungs activity uptake ratio ([4]; mice, 5 min post injection): 2.6
radioactivity uptake in the heart ([4]; mice, 5 min post injection): 26.8 % ID/g
heart/blood activity uptake ratio ([4]; mice, 10 min post injection): 13.3 fold and ~13 fold
radioactivity uptake in the heart ([4]; mice, 10 min post injection): 18.5 % ID/g and ~20 % ID/g
radioactivity uptake in the heart ([4]; mice, 15 min post injection): 13.9 % ID/g
heart/blood activity uptake ratio [4, 6]: 16 fold

Compound: C[N+]([11CH3])(c1ccccc1)c1ccccc1 [[^11C]-4, [^11C]dimethyl-diphenyl-ammonium iodide]
myocardial perfusion image finding, rest and stress ([1]; pig 1, complete stent occlusion): very severe, non-filling defect
myocardial perfusion image finding, rest and stress ([1]; pig 2, acute myocardial infarction): severe, fixed, inferior wall defect, with partial inferolateral wall reversibility
myocardial perfusion image finding at adenosine stress ([1]; pig 3, partial LCx stenosis): severe inferolateral defect
myocardial perfusion image finding at rest ([1]; pig 3, partial LCx stenosis): filling in of that defect
time to minimum of blood pool activity ([1]; pig 3, time-activity curves): 5 min
time to plateau of cardiac accumulation ([1]; pig 3, time-activity curves): approximately 10 min
radioactivity uptake in the heart [4, 7]: 46.6 % ID/g
heart/blood activity uptake ratio [4, 8]: 44 fold
radioactivity uptake in the heart [4, 8]: 50.4 % ID/g
heart/blood activity uptake ratio [4, 9]: 61 fold
radioactivity uptake in the heart [4, 9]: 62.5 % ID/g
Heart SUV [4, 10]: 9.7±0.5
radioactivity uptake in the heart [4, 10]: 44.5 % ID/g
heart uptake compared to [99mTc]-MIBI ([4]; mouse, in vivo): twice as high
kidney radioactivity uptake, initial peak value [2]: 6 % ID/mL
kidney radioactivity uptake ([2]; 20 min after injection): ~1 % ID/mL
myocardial radioactivity uptake [2]: ~3 % ID/mL
stable heart SUVs [5]: about 15
heart/blood activity ratios ([5]; 5-15 min after injection): 67.5-88.5
heart/kidneys uptake ratio ([5]; 10 min after injection): 3.5
heart/liver uptake ratio ([5]; 10 min after injection): 3.2
heart/lungs uptake ratio ([5]; 10 min after injection): 2.4
Heart SUV ([5]; 15 min post injection): 15.6±0.4
heart/blood activity ratio ([5]; 15 min post injection): about 90
radioactivity in the heart compared to the lungs, kidneys and the liver ([5]; 15 min post injection): approximately 5 fold
radioactivity uptake in the heart ([5]; throughout the first 15 min): approximately 5 % ID/g

Compound: [^11C]tetramethyl-ammonium iodide [[^11C]-1]
log P [3]: −3.92
cardiac uptake, folds lower than in the kidneys ([4]; mice): 9 folds
cardiac uptake, folds lower than in the liver ([4]; mice): 3 folds
activity accumulation in the heart over all observed time points ([4]; mice, 1-15 min post injection): 0.7-1.1 % ID/g
heart/blood activity uptake ratio [4, 6]: less than 6 fold

Compound: Cc1cccc([N+](C)(C)[11CH3])c1 [[^11C]-6, [^11C]Methyl-dimethyl-m-tolyl-ammonium iodide]
heart/blood activity uptake ratio ([4]; mice, 10 min post injection): ~13 fold
radioactivity uptake in the heart ([4]; mice, 10 min post injection): ~20 % ID/g

Compound: C[N+](C)([11CH3])c1cccc2ccccc12.O=S(=O)([O-])C(F)(F)F [[^11C]-7, [^11C]Methyl-dimethyl-1-naphtylammonium trifluoro-methane-sulfonate]
radioactivity uptake in the heart ([4]; mice, 10 min post injection): ~33 % ID/g
heart/blood activity uptake ratio [4, 6]: ≤ 20 fold

logP (log P (lipophilicity)): -0.93 ± 0.1
radioactivity uptake in the heart [4, 7]: 48.7 % ID/g
radioactivity uptake in the heart [4, 8]: 47.7 % ID/g
radioactivity uptake in the heart [4, 9]: 40.15 % ID/g
radioactivity uptake in the heart [4, 10]: 28.5 % ID/g
Compound: CN(C)c1ccc([N+](C)(C)[11CH3])cc1 [[^11C]-3, [^11C](4-dimethylamino-phenyl)-trimethyl-ammonium iodide]

Compound: [99Tc].[C-]#[N+]CC(C)(C)OC.[C-]#[N+]CC(C)(C)OC.[C-]#[N+]CC(C)(C)OC.[C-]#[N+]CC(C)(C)OC.[C-]#[N+]CC(C)(C)OC.[C-]#[N+]CC(C)(C)OC [[^99mTc]MIBI, Technetium-99 m methoxy isobutyl isonitrile, reference compound]
radioactivity uptake in the heart ([4]; mice, 1 min post injection): 24 % ID/g
radioactivity uptake in the heart ([4]; mice, 5 min post injection): 20.5 % ID/g
radioactivity uptake in the heart ([4]; mice, 10 min post injection): 21.4 % ID/g
heart/blood activity uptake ratio ([4]; mice, 15 min post injection): 45.1 fold
radioactivity uptake in the heart ([4]; mice, 15 min post injection): 13.8 % ID/g
